Test: Inhibition of ACK1 in mouse C8 cells assessed as decrease in cell viability after 20 to 24 hrs

Structure (SMILES) | IC50
Cc1ccccc1-c1c(-c2ccc(OCCN3CCCC3)cc2)[nH]c2ncnc(NC[C@@H]3CCCO3)c12 | 0.16 µM
Fc1ccccc1-c1c(-c2ccc(OCCN3CCCC3)cc2)[nH]c2ncnc(NC[C@@H]3CCCO3)c12 | 0.04 µM
CN(C)CCOc1ccc(-c2[nH]c3ncnc(NCC4SCCS4)c3c2-c2ccccc2)cc1 | 0.005 µM
CN(C)CCOc1ccc(-c2oc3ncnc(NCC4SCCS4)c3c2-c2ccccc2)cc1 | 0.01 µM
c1ccc(-c2c(-c3ccc(OCCN4CCCC4)cc3)[nH]c3ncnc(NCC4SCCS4)c23)cc1 | 0.01 µM
CN(C)CCOc1ccc(-c2oc3ncnc(NCC4CCCS4)c3c2-c2ccccc2)cc1 (stereo not given) | 3 µM
CN(C)CCOc1ccc(-c2oc3ncnc(NCC4OCCO4)c3c2-c2ccccc2)cc1 | 2 µM
CN(C)CCOc1ccc(-c2oc3ncnc(NC[C@@H]4CCCCS4)c3c2-c2ccccc2)cc1 | 7.16 µM
CN(C)CCOc1ccc(-c2oc3ncnc(NCC4SCCCS4)c3c2-c2ccccc2)cc1 | 0.55 µM
CN(C)CCOc1ccc(-c2[nH]c3ncnc(NC[C@@H]4CC[C@H]4O)c3c2-c2ccccc2)cc1 | 0.41 µM
CN(C)CCOc1ccc(-c2[nH]c3ncnc(NC[C@H]4CCC[C@H]4O)c3c2-c2ccccc2)cc1 | 0.46 µM
CO[C@@H]1CCC[C@@H]1CNc1ncnc2[nH]c(-c3ccc(OCCN(C)C)cc3)c(-c3ccccc3)c12 | 0.78 µM
CO[C@@H]1CCC[C@H]1CNc1ncnc2[nH]c(-c3ccc(OCCN(C)C)cc3)c(-c3ccccc3)c12 | 1.3 µM
c1cncc(-c2c(-c3ccc(OCCN4CCCC4)cc3)[nH]c3ncnc(NC[C@@H]4CCCO4)c23)c1 | 0.39 µM
COc1cccc(-c2c(-c3ccc(OCCN4CCCC4)cc3)[nH]c3ncnc(NC[C@@H]4CCCO4)c23)c1 | 0.16 µM
c1ccc(-c2[nH]c3ncnc(NC[C@@H]4CCCO4)c3c2-c2ccccc2)cc1 | 0.62 µM
COc1ccc(-c2oc3ncnc(NC[C@@H]4CCCO4)c3c2-c2ccccc2)cc1 | 0.55 µM
COc1ccc(-c2[nH]c3ncnc(NC[C@@H]4CCCO4)c3c2-c2ccccc2)cc1 | 0.35 µM
CS(=O)(=O)c1ccc(-c2oc3ncnc(NC[C@@H]4CCCO4)c3c2-c2ccccc2)cc1 | 0.25 µM
CS(=O)(=O)c1ccc(-c2[nH]c3ncnc(NC[C@@H]4CCCO4)c3c2-c2ccccc2)cc1 | 0.1 µM

Structure (SMILES) | IC50
CN(C)S(=O)(=O)c1ccc(-c2[nH]c3ncnc(NC[C@@H]4CCCO4)c3c2-c2ccccc2)cc1 | 0.09 µM
CNS(=O)(=O)c1ccc(-c2oc3ncnc(NC[C@@H]4CCCO4)c3c2-c2ccccc2)cc1 | 0.3 µM
CNS(=O)(=O)c1ccc(-c2[nH]c3ncnc(NC[C@@H]4CCCO4)c3c2-c2ccccc2)cc1 | 0.04 µM
CN(C)CCOc1ccc(-c2[nH]c3ncnc(NC[C@@H]4CCCO4)c3c2-c2ccccc2)cc1 | 0.02 µM
c1ccc(-c2c(-c3ccc(OCCN4CCOCC4)cc3)oc3ncnc(NC[C@@H]4CCCO4)c23)cc1 | 0.16 µM
c1ccc(-c2c(-c3ccc(OCCN4CCOCC4)cc3)[nH]c3ncnc(NC[C@@H]4CCCO4)c23)cc1 | 0.08 µM
c1ccc(-c2c(-c3ccc(OCCN4CCCC4)cc3)[nH]c3ncnc(NC[C@@H]4CCCO4)c23)cc1 | 0.06 µM
O=C1CCCN1CCOc1ccc(-c2oc3ncnc(NC[C@@H]4CCCO4)c3c2-c2ccccc2)cc1 | 0.23 µM
O=C1CCCN1CCOc1ccc(-c2[nH]c3ncnc(NC[C@@H]4CCCO4)c3c2-c2ccccc2)cc1 | 0.02 µM
CN(C)C(=O)c1ccc(-c2oc3ncnc(NC[C@@H]4CCCO4)c3c2-c2ccccc2)cc1 | 0.18 µM
CN(C)C(=O)c1ccc(-c2[nH]c3ncnc(NC[C@@H]4CCCO4)c3c2-c2ccccc2)cc1 | 0.02 µM
CNC(=O)c1ccc(-c2[nH]c3ncnc(NC[C@@H]4CCCO4)c3c2-c2ccccc2)cc1 | 0.04 µM
O=C(c1ccc(-c2oc3ncnc(NC[C@@H]4CCCO4)c3c2-c2ccccc2)cc1)N1CCOCC1 | 0.19 µM
O=C(c1ccc(-c2[nH]c3ncnc(NC[C@@H]4CCCO4)c3c2-c2ccccc2)cc1)N1CCOCC1 | 0.02 µM
CN(C)CCOc1ccc(-c2[nH]c3ncnc(NC[C@@H]4CCCO4)c3c2C2=CCCCC2)cc1 | 0.5 µM
CN(C)CCOc1ccc(-c2[nH]c3ncnc(NC[C@@H]4CCCO4)c3c2C2=CCCC2)cc1 | 0.24 µM
CO[C@@H]1CC[C@H]1CNc1ncnc2[nH]c(-c3ccc(OCCN(C)C)cc3)c(-c3ccccc3)c12 | 0.42 µM
CNC(=O)c1ccc(-c2oc3ncnc(NC[C@@H]4CCCO4)c3c2-c2ccccc2)cc1 | 2.05 µM
CN(C)CCOc1ccc(-c2oc3ncnc(NC[C@@H]4CCCO4)c3c2-c2ccccc2)cc1 [(S)-6-(4-(2-(dimethylamino)ethoxy)phenyl)-5-phenyl-N-((tetrahydrofuran-2-yl)methyl)furo[2,3-d]pyrimidin-4-amine] | 0.03 µM
c1ccc(-c2oc3nccc(NC[C@@H]4CCCO4)c3c2-c2ccccc2)cc1 [N-[(2S)-oxolan-2-ylmethyl]-2,3-diphenylfuro[2,3-b]pyridin-4-amine] | 5.6 µM

Reference: BindingDB's records for doi:10.1016/j.bmcl.2012.08.020 (Amgen, 2012)
